Experimental data as given in the NIST ThermoML archive (doi:10.1016/j.jct.2015.06.005).

What was measured:
[1] = refractive index (Na D-line) (dimensionless); xn = mol fraction of the nth substance listed; conditions: 100 kPa, Liquid, Standard Abbe refractometry
[2] = xn = mol fraction of the nth substance listed; conditions: 100 kPa, Liquid; for speed of sound: Frequency=3 MHz, Sing-around technique in a fixed-path interferometer; for mass density: Vibrating tube method

CCCCCCCCN1CCCC1=O [N-octyl-2-pyrrolidone] + CCCCn1cc[n+](C)c1.F[B-](F)(F)F
Conditions | mass density, [2] [kg/m3] | refractive index, [1] | speed of sound, [2] [m/s]
298.15 K, x2 = 0 | 918.45 | 1.46346 | 1450.2
298.15 K, x2 = 0.1084 | 945.54 | 1.46095 | 1454.9
298.15 K, x2 = 0.196 | 965.52 | 1.45803 | 1457.4
298.15 K, x2 = 0.3023 | 991.51 | 1.45399 | 1461.3
298.15 K, x2 = 0.4087 | 1020.1 | 1.44986 | 1467.5
298.15 K, x2 = 0.5064 | 1045.47 | 1.44556 | 1474
298.15 K, x2 = 0.6027 | 1074.31 | 1.44155 | 1485.8
298.15 K, x2 = 0.6981 | 1103.56 | 1.43713 | 1499.9
298.15 K, x2 = 0.7966 | 1133.07 | 1.43209 | 1517.6
298.15 K, x2 = 0.8978 | 1164.87 | 1.42695 | 1539.8
303.15 K, x2 = 0 | 914.8 | 1.46152 | 1432.6
303.15 K, x2 = 0.1084 | 941.91 | 1.45882 | 1438.3
303.15 K, x2 = 0.196 | 961.89 | 1.45622 | 1441.3
303.15 K, x2 = 0.3023 | 987.89 | 1.45226 | 1445.3
303.15 K, x2 = 0.4087 | 1016.54 | 1.4482 | 1452.1
303.15 K, x2 = 0.5064 | 1041.86 | 1.44392 | 1459.2
303.15 K, x2 = 0.6027 | 1070.71 | 1.43996 | 1471.7
303.15 K, x2 = 0.6981 | 1099.98 | 1.43564 | 1486
303.15 K, x2 = 0.7966 | 1129.48 | 1.4307 | 1504.5
303.15 K, x2 = 0.8978 | 1161.29 | 1.42526 | 1527.3
308.15 K, x2 = 0 | 911.14 | 1.45955 | 1415.3
308.15 K, x2 = 0.1084 | 938.28 | 1.45675 | 1421.6
308.15 K, x2 = 0.196 | 958.26 | 1.45433 | 1424.9
308.15 K, x2 = 0.3023 | 984.27 | 1.45051 | 1429.4
308.15 K, x2 = 0.4087 | 1012.96 | 1.44653 | 1436.8
308.15 K, x2 = 0.5064 | 1038.25 | 1.4423 | 1444.4
308.15 K, x2 = 0.6027 | 1067.16 | 1.43842 | 1457.4
308.15 K, x2 = 0.6981 | 1096.42 | 1.43416 | 1472.3
308.15 K, x2 = 0.7966 | 1125.91 | 1.42923 | 1491.4
308.15 K, x2 = 0.8978 | 1157.71 | 1.42379 | 1514.9
313.15 K, x2 = 0 | 907.49 | 1.45761 | 1398
313.15 K, x2 = 0.1084 | 934.64 | 1.45482 | 1405
313.15 K, x2 = 0.196 | 954.63 | 1.45243 | 1408.7
313.15 K, x2 = 0.3023 | 980.66 | 1.44871 | 1413.7
313.15 K, x2 = 0.4087 | 1009.39 | 1.44484 | 1421.6
313.15 K, x2 = 0.5064 | 1034.65 | 1.44059 | 1429.7
313.15 K, x2 = 0.6027 | 1063.63 | 1.43681 | 1443.3
313.15 K, x2 = 0.6981 | 1092.9 | 1.43266 | 1458.8
313.15 K, x2 = 0.7966 | 1122.36 | 1.42777 | 1478.6
313.15 K, x2 = 0.8978 | 1154.16 | 1.4223 | 1502.7
318.15 K, x2 = 0 | 903.83 | 1.45564 | 1380.9
318.15 K, x2 = 0.1084 | 931.01 | 1.45292 | 1388.6
318.15 K, x2 = 0.196 | 951.01 | 1.45054 | 1392.7
318.15 K, x2 = 0.3023 | 977.05 | 1.44692 | 1398.2
318.15 K, x2 = 0.4087 | 1005.86 | 1.44312 | 1406.6
318.15 K, x2 = 0.5064 | 1031.07 | 1.43894 | 1415.2
318.15 K, x2 = 0.6027 | 1060.13 | 1.43513 | 1429.4
318.15 K, x2 = 0.6981 | 1089.38 | 1.43111 | 1445.5
318.15 K, x2 = 0.7966 | 1118.83 | 1.4263 | 1465.9
318.15 K, x2 = 0.8978 | 1150.62 | 1.4208 | 1490.6
323.15 K, x2 = 0 | 900.17 | 1.45367 | 1364
323.15 K, x2 = 0.1084 | 927.39 | 1.45088 | 1372.3
323.15 K, x2 = 0.196 | 947.4 | 1.44862 | 1376.7
323.15 K, x2 = 0.3023 | 973.44 | 1.44512 | 1382.7
323.15 K, x2 = 0.4087 | 1002.29 | 1.44146 | 1391.8
323.15 K, x2 = 0.5064 | 1027.48 | 1.43731 | 1400.8
323.15 K, x2 = 0.6027 | 1056.67 | 1.43346 | 1415.6
323.15 K, x2 = 0.6981 | 1085.86 | 1.42954 | 1432.2
323.15 K, x2 = 0.7966 | 1115.32 | 1.42478 | 1453.3
323.15 K, x2 = 0.8978 | 1147.1 | 1.41935 | 1478.6
